# Reference: PubChem BioAssay (NCI)
# “And” between values parts separate entries of the source, which are not always exact repeats. Equal values may be shown once.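 Growth conditions: 96-well plates. Treatment: test compound, 48 hours, 5 concentrations. Analysis: linear interpolation between bracketing concentrations; unreached endpoints set to highest concentration. GI50: concentration for 50% inhibition of growth. The concentration for full growth arrest is given as TGI.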
# Test system: EKVX NSCLC
# Assay: DTP human tumour cell line panel, 48 h
row,Structure (SMILES),TGI [µM]
1,COC(=O)C(Cc1c[nH]c2ccccc12)NP(=O)(O)OCC1OC(n2cc(I)c(=O)[nH]c2=O)CC1O (configuration not stated),> 100
2,O=c1cnn(C/C=C/CO)c(=O)[nH]1,> 100
3,N#Cc1c(-c2ccc(Cl)cc2Cl)nc2[nH][nH]c(=S)n2c1=O,> 100

# Test system: OVCAR-3 ovarian
# Assay: DTP human tumour cell line panel, 48 h
Structure (SMILES),TGI [µM],GI50 [µM]
COc1ccc2cc(/C=N/NC(=O)Nc3ccccc3)ccc2c1,> 100,
C=C(Cl)C(Br)(CCl)CCC(Br)C(C)(C)Cl (configuration not stated),3.73,2.01
CC(O)C1(CNc2cc(Cl)nc(N)n2)CCC1 (configuration not stated),> 100,
COC(=O)C(Cc1c[nH]c2ccccc12)NP(=O)(O)OCC1OC(n2cc(I)c(=O)[nH]c2=O)CC1O (configuration not stated),> 100,
O=c1cnn(C/C=C/CO)c(=O)[nH]1,> 100,

# Test system: HOP-62 NSCLC
# Assay: DTP human tumour cell line panel, 48 h
row,Structure (SMILES),TGI [µM]
1,CCOC(=O)CN1C(=O)c2ccc(NC(=O)C(=O)O)cc2S1(=O)=O,> 100
2,COc1ccc2cc(/C=N/NC(=O)Nc3ccccc3)ccc2c1,> 100
3,C=C(Cl)C(Br)(CCl)CCC(Br)C(C)(C)Cl (configuration not stated),7.66
4,CC(O)C1(CNc2cc(Cl)nc(N)n2)CCC1 (configuration not stated),> 100
5,COC(=O)C(Cc1c[nH]c2ccccc12)NP(=O)(O)OCC1OC(n2cc(I)c(=O)[nH]c2=O)CC1O (configuration not stated),> 100
6,O=c1cnn(C/C=C/CO)c(=O)[nH]1,> 100
7,N#Cc1c(-c2ccc(Cl)cc2Cl)nc2[nH][nH]c(=S)n2c1=O,> 100

# Test system: T-47D breast
# Assay: DTP human tumour cell line panel, 48 h
Structure (SMILES),TGI [µM],GI50 [µM]
CCOC(=O)CN1C(=O)c2ccc(NC(=O)C(=O)O)cc2S1(=O)=O,> 100,
COc1ccc2cc(/C=N/NC(=O)Nc3ccccc3)ccc2c1,> 100,
C=C(Cl)C(Br)(CCl)CCC(Br)C(C)(C)Cl (configuration not stated),,30.1
CC(O)C1(CNc2cc(Cl)nc(N)n2)CCC1 (configuration not stated),> 100,
COC(=O)C(Cc1c[nH]c2ccccc12)NP(=O)(O)OCC1OC(n2cc(I)c(=O)[nH]c2=O)CC1O (configuration not stated),> 100,
O=c1cnn(C/C=C/CO)c(=O)[nH]1,> 100,
N#Cc1c(-c2ccc(Cl)cc2Cl)nc2[nH][nH]c(=S)n2c1=O,> 100,

# Test system: U251 CNS
# Assay: DTP human tumour cell line panel, 48 h
Structure (SMILES),TGI [µM],GI50 [µM]
CCOC(=O)CN1C(=O)c2ccc(NC(=O)C(=O)O)cc2S1(=O)=O,> 100,
COc1ccc2cc(/C=N/NC(=O)Nc3ccccc3)ccc2c1,> 100,
C=C(Cl)C(Br)(CCl)CCC(Br)C(C)(C)Cl (configuration not stated),6.93,2.74
CC(O)C1(CNc2cc(Cl)nc(N)n2)CCC1 (configuration not stated),> 100,
COC(=O)C(Cc1c[nH]c2ccccc12)NP(=O)(O)OCC1OC(n2cc(I)c(=O)[nH]c2=O)CC1O (configuration not stated),> 100,
O=c1cnn(C/C=C/CO)c(=O)[nH]1,> 100,
N#Cc1c(-c2ccc(Cl)cc2Cl)nc2[nH][nH]c(=S)n2c1=O,> 100,

# Test system: HOP-92 NSCLC
# Assay: DTP human tumour cell line panel, 48 h
row,Structure (SMILES),TGI [µM]
1,CCOC(=O)CN1C(=O)c2ccc(NC(=O)C(=O)O)cc2S1(=O)=O,> 100
2,COc1ccc2cc(/C=N/NC(=O)Nc3ccccc3)ccc2c1,> 100
3,CC(O)C1(CNc2cc(Cl)nc(N)n2)CCC1 (configuration not stated),> 100
4,COC(=O)C(Cc1c[nH]c2ccccc12)NP(=O)(O)OCC1OC(n2cc(I)c(=O)[nH]c2=O)CC1O (configuration not stated),> 100
5,O=c1cnn(C/C=C/CO)c(=O)[nH]1,> 100
6,N#Cc1c(-c2ccc(Cl)cc2Cl)nc2[nH][nH]c(=S)n2c1=O,> 100

# Test system: OVCAR-4 ovarian
# Assay: DTP human tumour cell line panel, 48 h
Structure (SMILES),TGI [µM],GI50 [µM]
CCOC(=O)CN1C(=O)c2ccc(NC(=O)C(=O)O)cc2S1(=O)=O,> 100,
COc1ccc2cc(/C=N/NC(=O)Nc3ccccc3)ccc2c1,> 100,
C=C(Cl)C(Br)(CCl)CCC(Br)C(C)(C)Cl (configuration not stated),8.24,3.25
CC(O)C1(CNc2cc(Cl)nc(N)n2)CCC1 (configuration not stated),> 100,
COC(=O)C(Cc1c[nH]c2ccccc12)NP(=O)(O)OCC1OC(n2cc(I)c(=O)[nH]c2=O)CC1O (configuration not stated),> 100,
N#Cc1c(-c2ccc(Cl)cc2Cl)nc2[nH][nH]c(=S)n2c1=O,> 100,

# Test system: MDA-MB-231 breast
# Assay: DTP human tumour cell line panel, 48 h
Structure (SMILES),TGI,GI50 [µM]
CCOC(=O)CN1C(=O)c2ccc(NC(=O)C(=O)O)cc2S1(=O)=O,> 100 µM,
COc1ccc2cc(/C=N/NC(=O)Nc3ccccc3)ccc2c1,> 100 µM,
C=C(Cl)C(Br)(CCl)CCC(Br)C(C)(C)Cl (configuration not stated),2.32 µM and 3.77 µM,2.02
CC(O)C1(CNc2cc(Cl)nc(N)n2)CCC1 (configuration not stated),> 100 µM,
COC(=O)C(Cc1c[nH]c2ccccc12)NP(=O)(O)OCC1OC(n2cc(I)c(=O)[nH]c2=O)CC1O (configuration not stated),> 100 µM,
O=c1cnn(C/C=C/CO)c(=O)[nH]1,> 100 µM,
N#Cc1c(-c2ccc(Cl)cc2Cl)nc2[nH][nH]c(=S)n2c1=O,> 100 µM,
